In brackets after ≈: the same amount, converted by molar mass.
Experiments:
Glucocorticoid receptor [1] = biological target: T1, Glucocorticoid receptor (Homo sapiens, UniProt P04150)
T1 sequence (P04150 whole entry): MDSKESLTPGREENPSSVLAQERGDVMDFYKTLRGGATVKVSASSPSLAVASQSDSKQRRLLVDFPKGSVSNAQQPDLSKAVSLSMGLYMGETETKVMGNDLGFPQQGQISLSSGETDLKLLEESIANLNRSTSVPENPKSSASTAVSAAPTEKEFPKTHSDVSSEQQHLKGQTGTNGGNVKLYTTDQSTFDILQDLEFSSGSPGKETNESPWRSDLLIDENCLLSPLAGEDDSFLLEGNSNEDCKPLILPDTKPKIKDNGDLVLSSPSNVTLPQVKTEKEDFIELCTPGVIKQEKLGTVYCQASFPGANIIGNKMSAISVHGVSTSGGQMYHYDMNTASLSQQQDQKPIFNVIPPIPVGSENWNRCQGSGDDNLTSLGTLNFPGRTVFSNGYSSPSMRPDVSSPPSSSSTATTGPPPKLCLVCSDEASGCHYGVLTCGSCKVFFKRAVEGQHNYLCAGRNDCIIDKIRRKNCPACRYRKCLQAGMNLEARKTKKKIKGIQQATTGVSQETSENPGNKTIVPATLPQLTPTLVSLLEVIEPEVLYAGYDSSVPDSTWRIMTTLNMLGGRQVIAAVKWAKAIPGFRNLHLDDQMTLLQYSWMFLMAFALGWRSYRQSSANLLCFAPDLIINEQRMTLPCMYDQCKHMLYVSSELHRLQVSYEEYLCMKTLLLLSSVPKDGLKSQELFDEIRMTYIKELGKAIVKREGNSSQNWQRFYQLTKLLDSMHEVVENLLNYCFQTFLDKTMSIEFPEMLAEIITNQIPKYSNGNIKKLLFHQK
Description: Transactivation activity at glucocorticoid receptor (unknown origin) expressed in human ChaGoK1 cells incubated for 24 hrs by beta-galactosidase reporter gene assay

Glucocorticoid receptor [2] = biological target: T1, Glucocorticoid receptor; test: Displacement of fluormone RED from human full length glucocorticoid receptor after 4 hrs by fluorescence polarization assay
[3] = Drug metabolism in rat hepatocytes assessed as N-((1R,2S)-1-(3-chloro-4-cyanophenoxy)-1-(6-hydroxypyridin-3-yl)propan-2-yl)-2,2-difluoropropanamide formation; assay type: ADME, cell-based, Hepatocyte
[4] = Drug metabolism in human hepatocytes assessed as N-((1R,2S)-1-(3-chloro-4-cyanophenoxy)-1-(6-hydroxypyridin-3-yl)propan-2-yl)-2,2-difluoropropanamide formation; assay type: ADME, cell-based, Hepatocyte
Glucocorticoid receptor [5] = biological target: T1, Glucocorticoid receptor; remark: listed apart in the source
Description: Transrepression activity at glucocorticoid receptor (unknown origin) expressed in human ChaGoK1 cells assessed as inhibition of PMA-stimulated gene expression incubated for 24 hrs by beta-galactosidase reporter gene assay

[6] = Aqueous solubility of the compound; assay type: physicochemical; conditions: aqueous; read-out: solubility
[7] = Drug metabolism in rat hepatocytes treated with N-((1R,2S)-1-(3-chloro-4-cyanophenoxy)-1-(6-methoxypyridin-3-yl)propan-2-yl)-2,2-difluoropropanamide; assay type: ADME, cell-based, Hepatocyte
[8] = Drug metabolism in human hepatocytes treated with N-((1R,2S)-1-(3-chloro-4-cyanophenoxy)-1-(6-methoxypyridin-3-yl)propan-2-yl)-2,2-difluoropropanamide; assay type: ADME, cell-based, Hepatocyte
[9] = Clearance in rat; assay type: ADME, organism-based; conditions: in vivo
[10] = Intrinsic clearance in rat hepatocytes assessed per million cells; assay type: ADME, cell-based, Hepatocyte; conditions: read-out: CLH
[11] = Clearance in Han-Wistar rat at 0.9 mg/kg, iv; assay type: ADME, organism-based; conditions: in vivo
Rattus norvegicus [12] = test: Dose normalized AUC (0 to infinity) in Han-Wistar rat at 3.5 mg/kg, po; assay type: ADME, organism-based; conditions: in vivo
Estrogen receptor beta = Estrogen receptor beta (Homo sapiens, UniProt Q92731); test: Binding affinity to human ERbeta expressed in Sf9 cells by fluoligand binding-based fluorescence polarization method
Chain of Estrogen receptor beta (Q92731 whole entry): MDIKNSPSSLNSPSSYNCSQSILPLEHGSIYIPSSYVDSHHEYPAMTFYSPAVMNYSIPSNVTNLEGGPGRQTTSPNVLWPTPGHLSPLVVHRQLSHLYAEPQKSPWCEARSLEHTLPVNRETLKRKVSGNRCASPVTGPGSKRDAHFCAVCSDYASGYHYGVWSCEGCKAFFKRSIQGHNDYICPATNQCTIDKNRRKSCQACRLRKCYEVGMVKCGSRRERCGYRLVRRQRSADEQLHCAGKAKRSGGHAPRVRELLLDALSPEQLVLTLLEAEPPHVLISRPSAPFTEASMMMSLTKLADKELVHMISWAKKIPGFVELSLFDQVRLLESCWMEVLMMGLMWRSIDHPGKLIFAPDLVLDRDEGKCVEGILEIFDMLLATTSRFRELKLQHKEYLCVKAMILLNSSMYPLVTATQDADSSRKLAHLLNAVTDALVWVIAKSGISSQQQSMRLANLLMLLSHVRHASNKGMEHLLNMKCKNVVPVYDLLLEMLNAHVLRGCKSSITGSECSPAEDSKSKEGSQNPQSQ

[13] = Terminal half life in Han-Wistar rat at 0.9 mg/kg, iv; assay type: ADME, organism-based; conditions: in vivo, read-out: beta t1/2 (converted)
[14] = Volume of distribution at steady state in Han-Wistar rat at 0.9 mg/kg, iv; assay type: ADME, organism-based; conditions: in vivo, read-out: Vdss
[15] = biological target: T2, Mineralocorticoid receptor (Homo sapiens, UniProt P08235); test: Displacement of [3H]-aldosterone from human mineralocorticoid receptor LBD (729 to 984 residues) after 1 hr by scintillation proximity assay
T2 sequence (P08235 whole entry): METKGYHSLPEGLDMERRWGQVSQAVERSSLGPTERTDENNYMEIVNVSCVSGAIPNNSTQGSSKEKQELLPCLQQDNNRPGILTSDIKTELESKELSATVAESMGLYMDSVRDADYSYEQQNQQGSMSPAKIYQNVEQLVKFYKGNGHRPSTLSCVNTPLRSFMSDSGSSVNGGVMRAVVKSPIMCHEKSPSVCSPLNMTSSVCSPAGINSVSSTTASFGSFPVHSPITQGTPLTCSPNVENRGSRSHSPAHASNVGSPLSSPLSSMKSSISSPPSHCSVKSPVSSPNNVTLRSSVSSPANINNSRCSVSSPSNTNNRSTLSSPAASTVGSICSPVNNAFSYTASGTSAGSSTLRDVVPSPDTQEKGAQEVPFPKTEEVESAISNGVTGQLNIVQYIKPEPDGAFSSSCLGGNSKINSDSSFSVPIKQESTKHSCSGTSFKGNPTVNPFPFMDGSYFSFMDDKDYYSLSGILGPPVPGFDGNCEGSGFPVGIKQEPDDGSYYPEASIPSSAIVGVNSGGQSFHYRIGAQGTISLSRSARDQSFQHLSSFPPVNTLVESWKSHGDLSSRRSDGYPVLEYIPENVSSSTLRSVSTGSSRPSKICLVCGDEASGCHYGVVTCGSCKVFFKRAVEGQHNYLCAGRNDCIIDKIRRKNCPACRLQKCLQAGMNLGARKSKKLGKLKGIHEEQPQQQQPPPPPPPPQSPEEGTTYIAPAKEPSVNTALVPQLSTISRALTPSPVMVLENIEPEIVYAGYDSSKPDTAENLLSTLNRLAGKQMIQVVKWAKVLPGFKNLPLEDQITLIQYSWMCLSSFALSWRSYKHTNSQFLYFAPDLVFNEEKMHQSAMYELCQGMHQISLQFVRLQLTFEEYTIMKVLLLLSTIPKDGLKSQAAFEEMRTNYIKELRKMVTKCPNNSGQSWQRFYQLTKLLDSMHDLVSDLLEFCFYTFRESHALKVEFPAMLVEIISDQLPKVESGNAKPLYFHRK

Estrogen receptor = biological target: T3, Estrogen receptor (Homo sapiens, UniProt P03372); test: Binding affinity to human ERalpha expressed in Sf9 cells by fluoligand binding-based fluorescence polarization method
T3 sequence (P03372 whole entry): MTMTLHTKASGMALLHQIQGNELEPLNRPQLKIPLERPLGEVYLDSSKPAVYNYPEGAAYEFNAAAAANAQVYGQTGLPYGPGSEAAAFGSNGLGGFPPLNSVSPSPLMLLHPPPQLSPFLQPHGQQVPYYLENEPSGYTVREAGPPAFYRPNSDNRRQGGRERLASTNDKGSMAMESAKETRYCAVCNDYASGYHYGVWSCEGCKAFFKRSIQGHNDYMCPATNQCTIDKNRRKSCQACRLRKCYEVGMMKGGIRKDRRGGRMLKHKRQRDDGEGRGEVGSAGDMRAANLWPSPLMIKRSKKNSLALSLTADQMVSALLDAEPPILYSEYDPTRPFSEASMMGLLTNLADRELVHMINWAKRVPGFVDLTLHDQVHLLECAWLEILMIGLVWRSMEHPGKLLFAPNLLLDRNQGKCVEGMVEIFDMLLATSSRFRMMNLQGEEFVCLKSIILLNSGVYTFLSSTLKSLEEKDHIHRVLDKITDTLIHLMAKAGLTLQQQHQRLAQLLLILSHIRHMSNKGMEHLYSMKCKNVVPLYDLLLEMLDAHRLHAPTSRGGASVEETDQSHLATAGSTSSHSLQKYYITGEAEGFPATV

[16] = Tmax in Han-Wistar rat at 3.5 mg/kg, po; assay type: ADME, organism-based; conditions: in vivo
[17] = Terminal half life in Han-Wistar rat at 3.5 mg/kg, po; assay type: ADME, organism-based; conditions: in vivo, read-out: beta t1/2 (converted)
Rattus norvegicus [18] = test: Dose normalized Cmax in Han-Wistar rat at 3.5 mg/kg, po; assay type: ADME, organism-based; conditions: in vivo
[19] = biological target: T4, Glucocorticoid receptor (Homo sapiens) (UniProt P04150)
T4 sequence (whole entry): T1 sequence (P04150 whole entry)
Description: Transrepression of GR in cryopreserved human fetal osteoblasts assessed as inhibition of OPG mRNA expression after 4 hrs by RT-qPCR analysis

Rattus norvegicus [20] = test: Antiinflammatory activity in streptococcal cell wall reactivation Lewis rat model assessed as reduction of joint swelling at 20 mg/kg administered once daily for 8 days by oral gavage starting 1 day prior to streptococcal cell wall challenge measured during 6 days post challenge relative to control; assay type: functional; design: scale not given: the % may be the effect or the level left
Glucocorticoid receptor [21] = biological target: T1, Glucocorticoid receptor; conditions: hepatocytes, 18 h
Description: Transactivation of GR in cryopreserved human primary hepatocytes assessed as upregulation of TAT mRNA expression level after 18 hrs by RT-qPCR analysis

Rattus norvegicus [22] = test: Antiinflammatory activity in streptococcal cell wall reactivation Lewis rat model assessed as reduction of joint swelling at 5 mg/kg administered once daily for 8 days by oral gavage starting 1 day prior to streptococcal cell wall challenge measured during 6 days post challenge relative to control; assay type: functional; design: scale not given: the % may be the effect or the level left
[23] = biological target: T4, Glucocorticoid receptor (Homo sapiens); remark: listed apart in the source
Description: (§1) Transrepression of GR in human whole blood assessed as inhibition of LPS-induced TNF-alpha release preincubated for 45 mins followed by LPS addition after 18 hrs by AlphaLISA method

Glucocorticoid receptor [24] = biological target: T1, Glucocorticoid receptor; remark: listed apart in the source
Description: as §1

Glucocorticoid receptor [25] = biological target: T1, Glucocorticoid receptor; conditions: blood
Description: Therapeutic index, ratio of fIC20 for transrepression of GR in cryopreserved human fetal osteoblasts assessed as inhibition of OPG mRNA expression to fIC30 for transrepression of GR in human whole blood assessed as inhibition of LPS-induced TNF-alpha release

Glucocorticoid receptor [26] = biological target: T1, Glucocorticoid receptor; test: Transactivation of GR in cryopreserved human primary hepatocytes assessed as upregulation of TAT mRNA expression level up to 1 uM after 18 hrs by RT-qPCR analysis
Hepatocyte = test: Stability in rat hepatocytes; assay type: ADME, cell-based
Glucocorticoid receptor [27] = biological target: T1, Glucocorticoid receptor; test: Antagonist activity at glucocorticoid receptor (unknown origin) expressed in human ChaGoK1 cells assessed as inhibition of dexamethasone induced transactivation incubated for 24 hrs by beta-galactosidase reporter gene assay; assay type: cell-based

Row | SMILES | EC50 (Glucocorticoid receptor [1]) | IC50 (Glucocorticoid receptor [2]) | IC50 (Glucocorticoid receptor [5]) | solubility [6] | clearance [9] | hepatocyte CLint [10] | fIC20 [19] | other results
1 | COc1ccc([C@@H](Oc2ccc(C#N)c(Cl)c2)[C@H](C)NC(=O)C(C)(F)F)cn1 | 33 nM | < 4 nM | 9.3 nM | 100 µM (≈ 41 µg/mL) |  |  |  | Drug metabolism [3]: Metabolite_Detected; Drug metabolism [4]: Metabolite_Detected
2 | C[C@H](NC(=O)C(C)(F)F)[C@H](Oc1ccc(C#N)c(Cl)c1)c1ccc(O)nc1 |  |  |  |  |  |  |  | Drug metabolism [7]: Metabolite_Detected; Drug metabolism [8]: Metabolite_Detected
3 | C[C@H](NC(=O)C(C)(F)F)[C@H](Oc1ccc(C#N)cc1Cl)c1cnc(C2CC2)nc1 | 21 nM | < 4.1 nM | 7.8 nM | 430 µM (≈ 181 µg/mL) | 7.3 mL/min/kg | 3.4 µL/min/1e6 cells |  | 
4 | COc1ccc([C@@H](Oc2ccc(C#N)cc2Cl)[C@H](C)NC(=O)C(C)(F)F)cn1 | 43 nM | 7.1 nM | 16 nM | 85 µM (≈ 34.8 µg/mL) | 22 mL/min/kg | 93 µL/min/1e6 cells |  | 
5 | C[C@]12C=CC(=O)C=C1CC[C@@H]1[C@@H]2[C@@H](O)C[C@@]2(C)[C@H]1CC[C@]2(O)C(=O)CO [PREDNISOLONE] |  |  |  | 310 µM (≈ 112 µg/mL) |  |  | 0.88 nM | clearance [11]: 90 mL/min/kg; AUC/dose (Rattus norvegicus [12]): 0.094 µM·h; IC50 (Estrogen receptor beta): > 100 µM; half-life [13]: 24 min; Vd [14]: 1.2 L/kg; IC50 [15]: 11 nM; IC50 (Estrogen receptor): > 100 µM; Tmax [16]: 16.8 min; half-life [17]: 150 min; Cmax/dose (Rattus norvegicus [18]): 0.1 µM; Activity (Rattus norvegicus [20]): 73%; fEC50 (Glucocorticoid receptor [21]): 24 nM; Activity (Rattus norvegicus [22]): 59%
6 | Cc1nnc(C(=O)N[C@@H](C(C)O)[C@H](Oc2ccc3c(cnn3-c3ccc(F)cc3)c2)c2cc(F)cc(F)c2)o1 (single isomer, unassigned) | 3.5 nM | 16 nM | 1.6 nM | 0.9 µM (≈ 0.484 µg/mL) |  |  | 0.04 nM | fIC30 [23]: 0.53 nM; IC50 (Glucocorticoid receptor [24]): 180 nM; TI (Glucocorticoid receptor [25]): 0.076; Activity (Glucocorticoid receptor [26]): Not Active; Stability (Hepatocyte): Stable; IC50 (Glucocorticoid receptor [27]): 270 nM

Reference: ChEMBL document CHEMBL4190372, “Discovery of a Novel Oral Glucocorticoid Receptor Modulator (AZD9567) with Improved Side Effect Profile” (J Med Chem, 2018)
